The test relates to shRNA-stable Kasumi-1 and MOLM13 cells. Put plainly: CFU serial replating assay of shRNA-stable cells with KPT-9274. It is filed as cell-based, human. The source says:
FIGS. 2A-2M show show representative data for genetic depletion of HDAC8 or SIRT6 increases vulnerability of AML cell lines to KPT-9274 treatment. FIGS. 2A-2D show data for knockout efficiency of CDS- and 3′UTR-targeting shRNAs in MOLM13 and Kasumi-1 cells as assessed with Western blotting (FIGS. 2A, 2D) with GAPDH as a loading control. Densitometric quantification of protein band intensity is shown (n=2) in FIGS. 2B, 2E. FIGS. 2E-2H show representative data for depletion of HDAC8 or SIRT6 (as indicated in graphs) and sensitization of AML cell lines to KPT-9274 treatment. Dose-response curves of shRNA-stable MOLM13 and Kasumi-1 cells for 24-hour and 48-hour treatments are plotted. Cell viability was measured with MTS. […] Scrambled or gene-targeting shRNA-stable MOLM13 or Kasumi-1 cells were treated with IC20 dose of KPT-9274 for 48 hour and stained with Annexin/PI for flow cytometry analysis. Data are shown as mean±SEM of % population from duplicates. FIGS. 2K-2L show representative data that KPT-9274 attenuates AML self-renewal and induces myeloid differentiation in HDAC8 or SIRT6-depleted cells. Quantification of the number of colonies formed by shRNA-stable Kasumi-1 and MOLM13 cells in the presence or absence of KPT-9274 in CFU assays. Indicated number of cells were seeded into Methocult and colonies were counted and replated by a double-blind approach after 7 days. Results are shown as mean±SEM of duplicates. *p<0.05. **p<0.01. […] For each condition, images were randomly taken from 6-12 fields of view. Scale bar=50 μm.
Colony-forming unit (CFU) assays. Age-matched cryopreserved primary cells from bone marrow and apheresis of AML patients with various co-mutations and CD34^+ healthy bone marrow cells were acquired from Ohio State University Comprehensive Cancer Center Leukemia Tissue Bank. […] Formed colonies were counted blindly after 7-14 days and re-plated at 10,000 cells/well. The images of colonies were captured with Echo revolving microscope. The images of Giemsa staining of cytospin preparations were acquired by CX43 Olympus inverted microscope. […]

`Nc1ccc(/C=C/C(=O)NCc2cc3cc(-c4ccc(C(=O)N5CCC(F)(F)CC5)cc4)cc(-c4ccc(F)cc4)c3o2)cn1` [KPT-9274, (E)-3-(6-aminopyridin-3-yl)-N-[[5-[4-(4,4-difluoropiperidine-1-carbonyl)phenyl]-7-(4-fluorophenyl)-1-benzofuran-2-yl]methyl]prop-2-enamide]: where the note is “HDAC8 or SIRT6-depleted MOLM13 and Kasumi-1 cells”, the “colony formation and long-term self-renewal” value is on record as “suppressed colony formation”. The “cell differentiation (Giemsa staining of cytospin preparations)” value (KPT-9274 with depletion of HDAC8 or SIRT6, cells derived from CFU assays) is “cooperatively differentiated AML cells”. Further, the “colony numbers vs vehicle control” value (scramble groups, sublethal doses of KPT-9274) is reported as “comparable”.

Values taken from patent US20260069581A1, “METHODS AND COMPOSITIONS FOR CANCER THERAPY” (OHIO STATE INNOVATION FOUNDATION, priority 2020, published 2026).
